The text below walks through data of patent US20260306644A1, “ANTIBODY RECRUITING MOLECULES FOR THE TREATMENT OF CORONAVIRUS DISEASE-19” (priority 2023, published 2026).

The target of test [1] is SARS-CoV-2 Spike protein (Severe acute respiratory syndrome coronavirus 2, UniProt P0DTC2). Description: Ternary binding of SARS-CoV-2 Spike protein (293T cells expressing Spike-GFP, IgG-AF647, flow cytometry). Format: cell-based. Conditions: IgG-AF647 10 μg/ml, repeat values/batches listed separately. (Flow cytometry measures light scatter and fluorescence of single cells or particles in a stream.)

Test [2] addresses T1, SARS-CoV-2 Spike Glycoprotein RBD protein (Severe acute respiratory syndrome coronavirus 2, UniProt P0DTC2).
T1 construct: SARS-CoV-2 (COVID-19) S Protein RBD, His Tag; purchased Acro Biosystems SPD-C52H3
Description: Binding of biotinylated ligands to SARS-CoV-2 Spike Glycoprotein RBD protein by ELISA. The protocol:
Materials. The binding affinity of biotinylated ligands to SARS-CoV-2 Spike Glycoprotein RBD protein was determined by ELISA. The binding assay was performed using the following steps: (1) assay plates (PE B&W Isoplate 96-well Flat Bottom, High Bindi-g - Perkin Elmer 6005580) were coated with 100 ul Anti-6× His tag antibody (Anti-6× His tag Antibody; Abcam ab15149, Mouse Monoclonal; Cambridge, UK) at 5 μg/ml in PBS, incubate 1 hour at 37° C. without shaking. The plates were washed (each wash step of this assay includes four 1-minute washes with 200 ul phosphate-buffered saline-0.05% (w/v) Tween® 20 detergent (PBST)). (2) Plates were blocked with 200 ul PBST-5% BSA (PBSTB; American Bio AB01088-00100; Canton, MA), for an hour at room temperature on a plate shaker (400 rpm). The plates were washed. […] The plates were washed. (4) Ligands were added, 100 ul at a concentration range of 0.1 mM to 100 nM in PBSTB, and incubated for 1 hour at room temperature on a plate shaker (200 RPM). The plates were washed. (5) NeutrAvidin™-HRP (Invitrogen 31030; Waltham, MA) is added, 100 ul at a dilution of 1:20,000 in PBSTB, and incubated for 1 hour at room temperature on a plate shaker (200 RPM). The plates were washed. (6) SuperSignal ELISA Pico Chemiluminescent Substrate (Thermo Scientific 37069; Waltham, MA) was added and incubated for 5 minutes at room temperature on a plate shaker (200 RPM).
On the technique in general: ELISA stands for enzyme-linked immunosorbent assay.

Test [3] deals with Spike RBD coated magnetic beads / RAW 264.7 macrophages. Briefly: Antibody-dependent cellular phagocytosis (ADCP), RAW 264.7 macrophages and Spike RBD coated magnetic beads, flow cytometry. Type of test: cell-based. The conditions noted are these: 37° C., 2 hours, read-out: SARS-COV-2 ADCP EC50. The protocol: The ability of the compounds to mediate antibody-dependent cellular phagocytosis (ADCP) was assessed using RAW 264.7 macrophages and Spike RBD coated magnetic beads (https://www.acrobiosystems.com/P3194-SARS-CoV-2-Spike-RBD-coupled-Magnetic-Beads.html). Spike RBD coated magnetic beads (3 ul per well) were added to each well of a round bottom 96-well plates. RAW264.7 cells (50,000 cells per well) were added to the beads. Next, the compounds were administered to predetermined final concentrations. The cell-bead mixtures were incubated at 37° C. for 2 hours. The mixtures were then analyzed by flow cytometry.

Test [4] has as its target T2, SARS-CoV-2 Spike A (wild-type) (Severe acute respiratory syndrome coronavirus 2, UniProt P0DTC2).
T2 construct: purchased Meso Scale Diagnostics, LLC V-PLEX SARS-CoV-2 Panel 13 (ACE2) Kit / Panel 23 (ACE2) Kit
Description: MSD ACE2 competition assay (inhibition of Spike binding with ACE2, ECL), A (wild-type). Conditions: IC50 Wild Type, Wild Type Spike.

Where [5] appears, read: 293T cells expressing Spike-GFP, read-out: SARS-CoV-2 Ternary binding EC50.
Where [6] appears, read: ELISA, biotinylated ligands, Spike RBD, read-out: ELISA SARS-CoV-2 Spike RBD Protein Binding EC50.
Where [7] appears, read: […], read-out: SARS-CoV-2 Ternary binding EC50.

“And” between values parts separate entries of the source, which are not always exact repeats. Equal values may be shown once. Read-outs that look alike come from different tables or passages of the source. Positions of bridges follow the written chain, without caps; N, C: chain ends. Non-standard residues stand in square brackets, D forms with d. Residues, ends and D or L forms follow the SMILES beside them. No end group written: not given here. *: point of attachment. Biotin = O=C1N[C@H]2[C@H](CS[C@H]2CCCCC(=O)*)N1; PEG4 = NCCOCCOCCOCCOCCC(=O)O; Nle = CCCC[C@H](N)C(=O)O; Aib = CC(C)(N)C(=O)O

For orientation: EC50 means the concentration needed to bring the measured effect to its halfway point. As to `CC[C@H](C)[C@H](NC(=O)[C@H](CC(C)C)NC(=O)[C@H](CC(=O)O)NC(=O)[C@H](CO)NC(=O)[C@@H](NC(=O)[C@H](CCCNC(=N)N)NC(=O)[C@H](CCSC)NC(=O)[C@H](CO)NC(=O)[C@H](C)NC(=O)[C@@H]1CCCN1C(=O)[C@H](C)NC(=O)[C@H](Cc1c[nH]cn1)NC(=O)CNC(=O)[C@H](CC(C)C)NC(=O)[C@H](CCC(=O)O)NC(=O)[C@H](CC(=O)O)NC(=O)[C@H](CC(C)C)NC(=O)[C@H](CC(C)C)NC(=O)[C@H](CCCNC(=N)N)NC(=O)[C@H](CCSC)NC(=O)[C@@H](NC(=O)[C@H](CCC(=O)O)NC(=O)[C@H](Cc1ccc(O)cc1)NC(=O)[C@@H](NC(=O)[C@H](CCCCN)NC(=O)[C@H](CCC(N)=O)NC(=O)[C@H](CC(C)C)NC(=O)[C@@H](NC(=O)[C@H](Cc1c[nH]c2ccccc12)NC(=O)[C@H](CCC(=O)O)NC(=O)[C@H](CCCCN)NC(=O)[C@H](CC(=O)O)NC(=O)CCOCCOCCOCCOCCNC(=O)CCCC[C@@H]1SC[C@@H]2NC(=O)N[C@@H]21)[C@@H](C)CC)[C@@H](C)CC)[C@@H](C)CC)C(C)C)C(=O)N[C@@H](Cc1ccc(O)cc1)C(=O)N[C@@H](CCC(=O)O)C(=O)N[C@@H](Cc1ccccc1)C(=O)N[C@@H](CCSC)C(=O)N[C@@H](CCCCN)C(=O)N[C@@H](CCCCN)C(=O)NCC(=O)N[C@@H](CC(=O)O)C(=O)N[C@@H](CCC(=O)O)C(=O)N[C@@H](CCCNC(=N)N)C(=O)N[C@@H](CC(C)C)C(=O)N[C@@H](CC(C)C)C(=O)N[C@@H](CCC(=O)O)C(=O)N[C@@H](CCC(=O)O)C(=O)N[C@@H](C)C(=O)N[C@@H](CCC(=O)O)C(=O)N[C@@H](CCCNC(=N)N)C(=O)N[C@@H](CC(C)C)C(=O)N[C@@H](CC(C)C)C(=O)N[C@@H](CCC(=O)O)C(=O)N[C@@H](CCC(=O)O)C(=O)N[C@H](C(=O)N[C@@H](CCC(=O)O)C(=O)N[C@@H](CCCNC(=N)N)C(N)=O)C(C)C` [Compound 187], the EC50 was 70 pM in test [1] (SARS-CoV-2 Ternary binding EC50, 293T cells expressing Spike-GFP) and 370 pM in test [2].

For `CC[C@H](C)[C@H](NC(=O)[C@H](CC(C)C)NC(=O)[C@H](CC(=O)O)NC(=O)[C@H](CO)NC(=O)[C@@H](NC(=O)[C@H](CCCNC(=N)N)NC(=O)[C@H](CCSC)NC(=O)[C@H](CO)NC(=O)[C@H](C)NC(=O)[C@@H]1CCCN1C(=O)[C@H](C)NC(=O)[C@H](Cc1c[nH]cn1)NC(=O)CNC(=O)[C@H](CC(C)C)NC(=O)[C@H](CCC(=O)O)NC(=O)[C@H](CC(=O)O)NC(=O)[C@H](CC(C)C)NC(=O)[C@H](CC(C)C)NC(=O)[C@H](CCCNC(=N)N)NC(=O)[C@H](CCSC)NC(=O)[C@@H](NC(=O)[C@H](CCC(=O)O)NC(=O)[C@H](Cc1ccc(O)cc1)NC(=O)[C@@H](NC(=O)[C@H](CCCCN)NC(=O)[C@H](CCC(N)=O)NC(=O)[C@H](CC(C)C)NC(=O)[C@@H](NC(=O)[C@H](Cc1c[nH]c2ccccc12)NC(=O)[C@H](CCC(=O)O)NC(=O)[C@H](CCCCN)NC(=O)[C@H](CC(=O)O)NC(=O)[C@H](CO)NC(=O)CCOCCOCCOCCOCCNC(=O)CCCC[C@@H]1SC[C@@H]2NC(=O)N[C@@H]21)[C@@H](C)CC)[C@@H](C)CC)[C@@H](C)CC)C(C)C)C(=O)N[C@@H](Cc1ccc(O)cc1)C(=O)N[C@@H](CCC(=O)O)C(=O)N[C@@H](Cc1ccccc1)C(=O)N[C@@H](CCSC)C(=O)N[C@@H](CCCCN)C(=O)N[C@@H](CCCCN)C(=O)NCC(N)=O` [Compound 193] ({Biotin-PEG4}-SDKEWILQKIYEIMRLLDELGHAPASMRVSDLIYEFMKKG-NH2), the EC50 in test [1] (setting [5]) is 2300 pM and 240 pM; in test [2] (setting [6]), 4600 pM.

For `CC[C@H](C)[C@H](NC(=O)[C@H](CC(C)C)NC(=O)[C@H](CC(=O)O)NC(=O)[C@H](CO)NC(=O)[C@@H](NC(=O)[C@H](CCCNC(=N)N)NC(=O)[C@H](CCSC)NC(=O)[C@H](CO)NC(=O)[C@H](C)NC(=O)[C@H](CCC(=O)O)NC(=O)[C@H](C)NC(=O)[C@H](Cc1c[nH]cn1)NC(=O)CNC(=O)[C@H](CC(C)C)NC(=O)[C@H](CCC(=O)O)NC(=O)[C@H](CC(=O)O)NC(=O)[C@H](CC(C)C)NC(=O)[C@H](CC(C)C)NC(=O)[C@H](CCCNC(=N)N)NC(=O)[C@H](CCSC)NC(=O)[C@@H](NC(=O)[C@H](CCC(=O)O)NC(=O)[C@H](Cc1ccc(O)cc1)NC(=O)[C@@H](NC(=O)[C@H](CCCCN)NC(=O)[C@H](CCC(N)=O)NC(=O)[C@H](CC(C)C)NC(=O)[C@@H](NC(=O)[C@H](Cc1c[nH]c2ccccc12)NC(=O)[C@H](CCC(=O)O)NC(=O)[C@H](CCCCN)NC(=O)[C@H](CC(=O)O)NC(=O)[C@H](CO)NC(=O)C(C)(C)NC(=O)CCOCCOCCOCCOCCNC(=O)CCCC[C@@H]1SC[C@@H]2NC(=O)N[C@@H]21)[C@@H](C)CC)[C@@H](C)CC)[C@@H](C)CC)C(C)C)C(=O)N[C@@H](Cc1ccc(O)cc1)C(=O)N[C@@H](CCC(=O)O)C(=O)N[C@@H](Cc1ccccc1)C(=O)N[C@@H](CCSC)C(=O)N[C@@H](CCCCN)C(=O)N[C@@H](CCCCN)C(=O)N[C@H](C)C(=O)O` [Compound 214], the EC50 in test [2] (setting [6]) was 780 pM.

As a reminder, the IC50 is the concentration needed to halve the response being measured. A high value points to weaker potency. Regarding “Ac-DKEWILQKIYEIMRLLDELGHAEASMRVSDLIYEFMKKGDERLLEEAERLLEEVERGQAPGQAPDCAWHLGELVWCT-NH2 (disulfide 66-76) [Compound 147]”, the values for the EC50 in test [3] and in test [1] (setting [7]) were 430 pM and 20 pM, respectively. In test [4], this compound came in with a half-inhibitory concentration (IC50) of 1350 pM.

“Ac-DKEWILQKIYEIMRLLDELGHAEASMRVSDLIYEFMKKGDERLLEEAERLLEEVERPASPASPASPASDCAWHLGELVWCT (disulfide 70-80) [Compound 165]”: the concentration giving a half-maximal response (EC50) in test [3] worked out at 70 pM; in test [1] (setting [7]), 110 pM. This compound came in with an IC50 in test [4] of 830 pM.

Regarding “DKEWILQKIYEIMRLLDELGHAEASMRVSDLIYEFMKKGDERLLEEAERLLEEVEREAAAKEAAAKDCAWHLGELVWCT-NH2 (disulfide 68-78) [Compound 173]”, the EC50 in test [3] came out at 350 pM; in test [1] (setting [7]), 40 pM. Moreover, the 50% inhibitory concentration (IC50) in test [4] stood at 1210 pM.

Take “DKEWILQKIYEIMRLLDELGHAEASMRVSDLIYEFMKKGDERLLEEAERLLEEVERGGDCAWHLGELVWCT-NH2 (disulfide 60-70) [Compound 172]”: the EC50 in test [3] was 870 pM; in test [1] (setting [5]), 20 pM. The compound also showed a half-inhibitory concentration (IC50) in test [4] of 1050 pM.

For “DKEWILQKIYEIMRLLDELGHAEASMRVSDLIYEFMKKGDERLLEEAERLLEEVERGGGGDCAWHLGELVWCT-NH2 (disulfide 62-72) [Compound 171]”, the EC50 was 410 pM in test [3] and 10 pM in test [1] (setting [5]). Moreover, the half-maximal inhibitory concentration (IC50) in test [4] amounted to 1250 pM.

As for “DKEWILQKIYEIMRLLDELGHAEASMRVSDLIYEFMKKGDERLLEEAERLLEEVERGGGGGGDCAWHLGELVWCT-NH2 (disulfide 64-74) [Compound 170]”, the concentration giving a half-maximal response (EC50) in test [3] was 950 pM; in test [1] (setting [5]), 20 pM. For the same compound, the half-inhibitory concentration (IC50) in test [4] amounted to 1520 pM.

For “DKEWILQKIYEIMRLLDELGHAEASMRVSDLIYEFMKKGDERLLEEAERLLEEVERGGGGGGGGDCAWHLGELVWCT-NH2 (disulfide 66-76) [Compound 169]”, the EC50 amounted to 530 pM in test [3] and 10 pM in test [1] (setting [5]). In test [4], this compound gave a half-maximal inhibitory concentration (IC50) of 1220 pM.

Regarding “DKEWILQKIYEIMRLLDELGHAEASMRVSDLIYEFMKKGDERLLEEAERLLEEVERGQAPGQAPDCAWHLGELVWCT-NH2 (disulfide 66-76) [Compound 174]”, the EC50 was 44 pM in test [3] and 140 pM in test [1] (setting [7]). Also, in test [4], the 50% inhibitory concentration (IC50) was determined as 1400 pM.

In the case of “{Biotin-PEG4}-[Aib]SDKEWILQKIYEI[Nle]RLLDELGHAEAS[Nle]RVSDLIY[Aib]FMK[Aib]G [Compound 220]”, the concentration for a half-maximal effect (EC50) in test [2] (setting [6]) worked out at 2550 pM.
